Measured values: patent US20230278981A1, “DICHLOROPHENOL HSD17B13 INHIBITORS AND USES THEREOF” (INIPHARM, INC., priority 2020, published 2023)

Biological target: HSD17B13 (Homo sapiens (Human), UniProt Q7Z5P4)
Assay: LC/MS estrone detection assay: conversion of estradiol to estrone by HSD17B13
Format: biochemical
Details: 4 μM estradiol, 6 mM NAD+, 30 nM HSD17B13 enzyme (E. coli expressed His-tagged), 2 hours at 26.5° C.
Method in brief: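 His-tagged E. coli-expressed HSD17B13 (30 nM) with 4 μM estradiol and 6 mM NAD+ in 1 M potassium phosphate pH 7.4, 0.5% DMSO, 2 h at 26.5° C. Estrone and estradiol quantified by LC-MS/MS after MeCN quench with D4-estrone internal standard; activity as % of uninhibited enzyme, IC50 by four-parameter fit, duplicates.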

Chain of HSD17B13 (Q7Z5P4 20-300): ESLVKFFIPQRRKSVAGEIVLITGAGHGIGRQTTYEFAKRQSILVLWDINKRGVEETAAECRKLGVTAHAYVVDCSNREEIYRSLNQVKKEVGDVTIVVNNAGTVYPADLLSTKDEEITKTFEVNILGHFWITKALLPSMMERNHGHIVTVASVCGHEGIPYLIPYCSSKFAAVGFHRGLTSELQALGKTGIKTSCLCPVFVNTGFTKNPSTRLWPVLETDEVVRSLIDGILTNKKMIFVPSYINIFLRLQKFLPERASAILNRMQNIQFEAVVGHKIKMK

SMILES	IC50 [µM]
O=C(Nc1cccc2ncn(Cc3ncccc3Cl)c(=O)c12)c1cc(Cl)c(O)c(Cl)n1 [Example 148, 4,6-dichloro-N-(3-((3-chloropyridin-2-yl)methyl)-4-oxo-3,4-dihydroquinazolin-5-yl)-5-hydroxypicolinamide]	0.1 to 0.5
Cc1ccc(NC(=O)c2cc(Cl)c(O)c(Cl)c2)c2c(=O)n(Cc3ccccc3OC(F)(F)F)c(C(F)F)nc12 [Example 149, 3,5-dichloro-N-(2-(difluoromethyl)-8-methyl-4-oxo-3-(2-(trifluoromethoxy)benzyl)-3,4-dihydroquinazolin-5-yl)-4-hydroxybenzamide]	≤ 0.1
Cc1nc2c(F)ccc(NC(=O)c3cc(Cl)c(O)c(Cl)n3)c2c(=O)n1Cc1ccccc1OC(F)(F)F [Example 150, 4,6-dichloro-N-(8-fluoro-2-methyl-4-oxo-3-(2-(trifluoromethoxy)benzyl)-3,4-dihydroquinazolin-5-yl)-5-hydroxypicolinamide]	≤ 0.1
Cc1ccc(NC(=O)c2cc(Cl)c(O)c(Cl)c2)c2c(=O)n(Cc3ccccc3C(F)(F)F)c(C)nc12 [Example 151, 3,5-dichloro-N-(2,8-dimethyl-4-oxo-3-(2-(trifluoromethyl)benzyl)-3,4-dihydroquinazolin-5-yl)-4-hydroxybenzamide]	≤ 0.1
Cc1ccc(NC(=O)c2cc(Cl)c(O)c(Cl)c2)c2c(=O)n(Cc3ccccc3OC(F)(F)F)c(CF)nc12 [Example 152, 3,5-dichloro-N-(2-(fluoromethyl)-8-methyl-4-oxo-3-(2-(trifluoromethoxy)benzyl)-3,4-dihydroquinazolin-5-yl)-4-hydroxybenzamide]	0.5 to 1
Cc1ccc(NC(=O)c2cc(Cl)c(O)c(Cl)n2)c2c(=O)n(Cc3ncccc3C(F)(F)F)c(C)nc12 [Example 153, 4,6-dichloro-N-(2,8-dimethyl-4-oxo-3-((3-(trifluoromethyl)pyridin-2-yl)methyl)-3,4-dihydroquinazolin-5-yl)-5-hydroxypicolinamide]	0.1 to 0.5
Cc1nc2c(F)ccc(NC(=O)c3cc(Cl)c(O)c(Cl)c3)c2c(=O)n1Cc1ncccc1C(F)(F)F [Example 154, 3,5-dichloro-N-(8-fluoro-2-methyl-4-oxo-3-((3-(trifluoromethyl)pyridin-2-yl)methyl)-3,4-dihydroquinazolin-5-yl)-4-hydroxybenzamide]	≤ 0.1
Cc1nc2c(F)ccc(NC(=O)c3cc(Cl)c(O)c(Cl)n3)c2c(=O)n1Cc1ncccc1C(F)(F)F [Example 155, 4,6-dichloro-N-(8-fluoro-2-methyl-4-oxo-3-((3-(trifluoromethyl)pyridin-2-yl)methyl)-3,4-dihydroquinazolin-5-yl)-5-hydroxypicolinamide]	0.1 to 0.5
Cc1nc2c(Cl)ccc(NC(=O)c3cc(Cl)c(O)c(Cl)c3)c2c(=O)n1Cc1ccccc1C(F)(F)F [Example 156, 3,5-dichloro-N-(8-chloro-2-methyl-4-oxo-3-(2-(trifluoromethyl)benzyl)-3,4-dihydroquinazolin-5-yl)-4-hydroxybenzamide]	≤ 0.1
Cc1nc2c(F)ccc(NC(=O)c3cc(Cl)c(O)c(Cl)c3)c2c(=O)n1C(C)c1ccccc1OC(F)(F)F (stereo not drawn) [Example 157, 3,5-dichloro-N-(8-fluoro-2-methyl-4-oxo-3-(1-(2-(trifluoromethoxy)phenyl)ethyl)-3,4-dihydroquinazolin-5-yl)-4-hydroxybenzamide]	0.1 to 0.5
Cc1nc2c(F)ccc(NC(=O)c3cc(Cl)c(O)c(Cl)c3)c2c(=O)n1Cc1ccccc1C(F)(F)F [Example 158, 3,5-dichloro-N-(8-fluoro-2-methyl-4-oxo-3-(2-(trifluoromethyl)benzyl)-3,4-dihydroquinazolin-5-yl)-4-hydroxybenzamide]	≤ 0.1
Cc1nc2c(F)ccc(NC(=O)c3cc(Cl)c(O)c(Cl)n3)c2c(=O)n1Cc1ccccc1C(F)(F)F [Example 159, 4,6-dichloro-N-(8-fluoro-2-methyl-4-oxo-3-(2-(trifluoromethyl)benzyl)-3,4-dihydroquinazolin-5-yl)-5-hydroxypicolinamide]	0.1 to 0.5
